Test results as given in patent publication US12318386B2, “Combination of XPO1 inhibitors and second agents for the treatment of prostate cancer” (Karyopharm Therapeutics Inc., priority 2018, dated 2025).

Tests used:
[1] = tested on: ARv; test: Western blot of ARv protein levels; type: cell-based; conditions: 22Rv1 cells, 250 nM, 72 hours
Method: (§1) Total proteins were subjected to 10 or 14% SDS-PAGE, and electrophoretically transferred to nitrocellulose membrane. The membranes were incubated with specific primary antibodies, and subsequently incubated with secondary antibody conjugated with peroxidase (Bio-rad, Hercules, CA). The signal was detected using the chemiluminescent detection system (PIERCE).

[2] = tested on: Relapsed/Refractory Metastatic Castration Resistant Prostate Cancer (mCRPC); test: Clinical trial in relapsed/refractory mCRPC, KPT-8602 alone and with abiraterone; type: in vivo, human
Method: • 1. Histologically confirmed adenocarcinoma of the prostate with archival tumor tissue available for molecular analyses. • 2. Surgically or medically castrated, with testosterone levels of <50 ng/dL (<2.0 nM). • 3. Documented mCRPC progression as assessed by the Investigator with one of the following: • a. Prostate specific antigen (PSA) progression defined by a minimum of 3 rising PSA levels (at approximately Day −30 and approximately Day −45) with an interval of >1 week between each determination. The PSA values at the Screening visit should be >2 μg/L (>2 ng/mL); patients on systemic glucocorticoids for control of symptoms must have documented PSA progression by Prostate Cancer Working Group 3 (PCWG3) while on systemic glucocorticoids prior to commencing C1D1 of treatment. • b. Radiographic progression of soft tissue disease by modified RECIST criteria 1.1 or of bone metastasis with 2 or more documented new bone lesions on a bone scan with or without PSA progression. • 4. Initial response (per modified PCWG3 Guidelines) to second generation anti-hormonal therapy (examples: abiraterone, enzalutamide, TAK 700), but later relapsed. Disease relapse would be defined as progressive disease at the time of entry per inclusion criterion 3. • 5. Zero to 2 previous taxane-based chemotherapy regimens. • 6. At least 2 weeks from completion of any radiotherapy including a single fraction of radiotherapy for the purposes of palliation (confined to one field) is permitted. • 7. Patients should not be transfusion dependent. • 8. Albumin>2.5 g/dL. • 9. Adequate hematopoietic function: ANC≥1000/mm^3, hemoglobin (Hb)≥9.0 g/dL, and platelet count≥100,000/mm^3. • 10. Eastern Cooperative Oncology Group (ECOG) performance status of ≤1. • 11. Life expectancy of ≥4 months. Additional Criteria for Combination Therapy Patients (KPT-8602 and Abiraterone) • 12. Patients currently receiving treatment with abiraterone and appropriate to continue in the opinion of the Investigator (some patients may be progressing). Patients must also have been on and continue on a stable dose of corticosteroids (prednisone or dexamethasone) for 30 days prior to C1D1. B. Patient Characteristics and Demographics
Patients treated with KPT-8602 alone received oral KPT-8602 for 5 days per week (QDx5) at dose levels of 20 and 30 mg. Patients treated with KPT-8602 and abiraterone received oral KPT-8602 for 5 days per week (QDx5) at dose levels of 20 and 30 mg and the dose and schedule of abiraterone and corticosteroids that they were receiving at the time of enrollment. For example, a typical dose of ZYTIGA (abiraterone acetate) is 1000 mg orally once daily with prednisone 5 mg orally twice daily. A full cycle was 28 days long. A representative cycle of KPT-8602 dosing is oral administration 5 out of 7 consecutive days in a week for a 28-day cycle (e.g., Days 1-5, 8-12, 15-19 and 22-26 of each 28-day cycle).
Responses were assessed using RECIST v 1.1 criteria once every 28-day cycle. PR: Partial Response, SD: Stable Disease, PD: Progressive Disease, DCR: Disease Control Rate. 7 Non-evaluable patients: 2AE, 2 patient decision, 2 physician decision, 1 patient non-compliant.
All patients had their disease assessed per modified PCWG3 Guidelines including RECIST v1.1 (see below) by the following tests at pre-determined the time points. • PSA: Disease specific clinical lab assessment • Testosterone: Disease specific clinical lab assessment • Bone scan and CT (or MRI) scan of the abdomen and pelvis (RECIST v.1.1): Patients will receive a bone scan to monitor and assess bone disease progression and CT (or MRI) of the abdomen and pelvis (and chest, if indicated) to monitor and assess soft tissue disease progression per PCWG3 including RECIST v.1.1. […]

[3] = tested on: AR; test: AR mRNA expression by real-time RT-qPCR in 22Rv1 cells; type: cell-based; conditions: 200 nM, 48 hours, vs control before treatment
Method: (§2) Prostate cancer cell line 22Rv1 was treated with KPT-8602 and the effect of the treatment on the expression of AR and AR splice variant AR-v7 was determined. 22Rv1 cells were treated with 200 nM KPT-8602 for 48 hours and the mRNA expression levels of AR and AR-v7 before (control) and after treatment were measured by real-time RT-qPCR using High Capacity cDNA Reverse Transcription Kit and SYBR Green Master Mixture from Applied Biosystems (Waltham, MA).

[4] = tested on: AR; test: Western blot of AR protein levels; type: cell-based; conditions: 22Rv1 cells, 250 nM, 72 hours
Method: as §1

[5] = tested on: AR-v7; test: AR-v7 mRNA expression by real-time RT-qPCR in 22Rv1 cells; type: cell-based; conditions: 200 nM, 48 hours, vs control before treatment
Method: as §2

[6] = tested on: xenograft samples derived from 22Rv1 cells; test: Immunohistochemistry of 22Rv1 xenograft samples; type: in vivo, mice
Excerpt: Increased nuclear staining of tumor suppressor proteins Rb, p21, p53, APC and SMAD4 were also observed in samples treated with KPT-8602.
A tissue microarray (TMA) was constructed with tumor samples collected from 22Rv1 mouse prostate cancer cell. Paraffin sections of the TMA were processed ans stained with antibodies using a Biogenex 16000 automated stainer. Digital images of the slides were obtained through an Aperio AT Turbo scanner 20×. The following antibodies were used for immunohistochemistry staining: Cleaved Caspase 3 (Cell Singaling Technology, 9661), p21 (Cell Signaling Technology, 2947), APC (Abcam, ab15270), Ki67 (Cell Marque, 275R-18), Rb (Abcam, ab181616, p53 (Santa Cruz, sc-126), and SMAD4 (Santa Cruz, sc-7966).

[7] = tested on: 22Rv1 prostate cancer xenograft; test: 22Rv1 prostate cancer xenograft model in CB.17 SCID mice; type: in vivo; conditions: 15 mg/kg, QDx5/week
Method: The effect of KPT-8602 (15 mg/kg, QDx5/week) in a 22Rv1 prostate cancer xenograft model in CB.17 SCID mice was evaluated. Mouse weights and tumor size were monitored three times a week. Each mouse was euthanized at the end of study (Day 35) or when tumor volume reached 1000 mm^3, whichever comes first.

[8] = RECIST v1.1, evaluable patients, KPT-8602 20 and 30 mg QDx5

NC(=O)/C(=C/n1cnc(-c2cc(C(F)(F)F)cc(C(F)(F)F)c2)n1)c1cncnc1 [KPT-8602]
protein levels of ARv [1]: significantly decreased | median PFS ([2]; Kaplan-Meier analysis, evaluable patients): 5.9 months | DCR (PR + SD) SD ≥ 8 weeks, % of patients [2, 8]: 82% | DCR (PR + SD) SD ≥ 8 weeks, number of patients [2, 8]: 9 | DCR (PR + SD) SD ≥ 16 weeks, % of patients [2, 8]: 55% | DCR (PR + SD) SD ≥ 16 weeks, number of patients [2, 8]: 6 | PD (Progressive Disease), % of patients [2, 8]: (18%) | PD (Progressive Disease), number of patients [2, 8]: 2 | PR (Partial Response), % of patients [2, 8]: (9%) | PR (Partial Response), number of patients [2, 8]: 1 | Median ToT (Time on Treatment) ([2]; evaluable patients, 20 mg KPT-8602): 96 days | Median ToT (Time on Treatment) ([2]; evaluable patients, 30 mg KPT-8602): 134 days | Median ToT (Time on Treatment) ([2]; evaluable patients, all doses (20 and 30 mg KPT-8602)): 96 days | mRNA expression of AR [3]: significantly inhibited | protein levels of AR [4]: significantly decreased | mRNA expression of AR-v7 [5]: significantly inhibited | nuclear staining of tumor suppressor protein APC [6]: Increased | nuclear staining of tumor suppressor protein Rb [6]: Increased | nuclear staining of tumor suppressor protein SMAD4 [6]: Increased | nuclear staining of tumor suppressor protein p21 [6]: Increased | nuclear staining of tumor suppressor protein p53 [6]: Increased | apoptotic molecule (Cleaved Caspase 3) ([6]; compared to vehicle controls): increased | cell proliferation marker (Ki67) ([6]; compared to vehicle controls): decreased | survival [7]: prolongs | tumor growth [7]: significantly inhibits | median OS (overall survival) ([7]; Kaplan-Meier, end of study Day 35, vehicle 20 days): undefined | % TGI (tumor growth inhibition) on Day 16 ([7]; compared to vehicle): 87%
